# Laboratory results: ChEMBL document CHEMBL1126227, “The synthesis and reactivity of ,-acetylenic and allenic sulfoxides and sulfones of dehydroepiandrosterone and their reactions with 1-butanethiol and glucose-6-phosphate dehydrogenase” (Bioorg Med Chem Lett, 1992)
# Biological target: Glucose-6-phosphate dehydrogenase (Bos taurus) (UniProt Q5EM56)
# Assay: Percent inhibition against bovine adrenal G6PDH (glucose-6-phosphate dehydrogenase) at a concentration of 10 e-5 M
# Chain of Glucose-6-phosphate dehydrogenase (Bos taurus) (Q5EM56 as listed by the source): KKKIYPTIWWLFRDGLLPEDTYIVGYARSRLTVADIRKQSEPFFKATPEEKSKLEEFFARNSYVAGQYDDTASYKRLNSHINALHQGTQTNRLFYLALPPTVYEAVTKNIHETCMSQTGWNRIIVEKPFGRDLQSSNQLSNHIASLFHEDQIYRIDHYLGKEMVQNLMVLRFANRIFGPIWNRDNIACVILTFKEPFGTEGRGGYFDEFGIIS
row,Structure (SMILES),inhibition
1,C#CCS[C@H]1CC[C@@]2(C)C(=CCC3C2CC[C@]2(C)C(=O)CCC32)C1 (stereo not given in full),47%
2,C#CC[S+]([O-])[C@H]1CC[C@@]2(C)C(=CCC3C2CC[C@]2(C)C(=O)CCC32)C1 (stereo not given in full),< 5%
3,C=C=CS(=O)(=O)[C@H]1CC[C@@]2(C)C(=CCC3C2CC[C@]2(C)C(=O)CCC32)C1 (stereo not given in full),15%
4,C=C=C[S+]([O-])[C@H]1CC[C@@]2(C)C(=CCC3C2CC[C@]2(C)C(=O)CCC32)C1 (stereo not given in full),< 5%
5,C#CCS(=O)(=O)[C@H]1CC[C@@]2(C)C(=CCC3C2CC[C@]2(C)C(=O)CCC32)C1 (stereo not given in full),20%
